Measurements from PubChem BioAssay (NCI).
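The compound was tested at five concentrations on cells cultured in 96-well plates, with a 48-hour exposure period. GI50 = concentration required for 50% inhibition of growth. At the TGI there is no net growth.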

Key:
Experiment in all cases: NCI-60 cell line screen, 48 h
CAKI-1 renal = test system: CAKI-1 renal
NCI-H226 lung = test system: NCI-H226 lung
HCC-2998 colon = test system: HCC-2998 colon
MALME-3M melanoma = test system: MALME-3M melanoma
MDA-MB-231 breast = test system: MDA-MB-231 breast
SF-295 CNS = test system: SF-295 CNS
M14 melanoma = test system: M14 melanoma
COLO 205 colon = test system: COLO 205 colon
HT29 colon = test system: HT29 colon
OVCAR-4 ovarian = test system: OVCAR-4 ovarian
IGROV1 ovarian = test system: IGROV1 ovarian
KM12 colon = test system: KM12 colon
SK-MEL-28 melanoma = test system: SK-MEL-28 melanoma
A498 renal = test system: A498 renal
SK-MEL-5 melanoma = test system: SK-MEL-5 melanoma
LOX IMVI melanoma = test system: LOX IMVI melanoma
SW-620 colon = test system: SW-620 colon
UACC-62 melanoma = test system: UACC-62 melanoma
HOP-62 NSCLC = test system: HOP-62 NSCLC
MOLT-4 leukemia = test system: MOLT-4 leukemia
T-47D breast = test system: T-47D breast
OVCAR-5 ovarian = test system: OVCAR-5 ovarian
MDA-MB-435 = test system: MDA-MB-435
SR leukemia = test system: SR leukemia
SF-539 CNS = test system: SF-539 CNS
BT-549 breast = test system: BT-549 breast
SNB-19 CNS = test system: SNB-19 CNS
SF-268 CNS = test system: SF-268 CNS
TK-10 renal = test system: TK-10 renal
CCRF-CEM leukemia = test system: CCRF-CEM leukemia
SK-OV-3 ovarian = test system: SK-OV-3 ovarian
HOP-92 NSCLC = test system: HOP-92 NSCLC
NCI-H522 lung = test system: NCI-H522 lung
OVCAR-3 ovarian = test system: OVCAR-3 ovarian
OVCAR-8 ovarian = test system: OVCAR-8 ovarian
MCF7 breast = test system: MCF7 breast
NCI-H23 lung = test system: NCI-H23 lung
PC-3 prostate = test system: PC-3 prostate
HCT-15 colon = test system: HCT-15 colon
NCI/ADR-RES ovarian = test system: NCI/ADR-RES ovarian
ACHN renal = test system: ACHN renal
NCI-H460 lung = test system: NCI-H460 lung
EKVX NSCLC = test system: EKVX NSCLC
A549 NSCLC = test system: A549 NSCLC
DU-145 prostate = test system: DU-145 prostate
SK-MEL-2 melanoma = test system: SK-MEL-2 melanoma
SN12C renal = test system: SN12C renal
UO-31 renal = test system: UO-31 renal
786-0 renal = test system: 786-0 renal
K-562 leukemia = test system: K-562 leukemia
RXF 393 renal = test system: RXF 393 renal
HCT-116 colon = test system: HCT-116 colon
SNB-75 CNS = test system: SNB-75 CNS
HL-60(TB) leukemia = test system: HL-60(TB) leukemia
U251 CNS = test system: U251 CNS
UACC-257 melanoma = test system: UACC-257 melanoma
HS 578T breast = test system: HS 578T breast

Cc1cc(Cl)ccc1Nc1nc(C(F)(F)F)ccc1C(=O)N/N=C/c1ccccc1Cl
GI50 (CAKI-1 renal): 2820 nM | TGI (CAKI-1 renal): 7720 nM | GI50 (NCI-H226 lung): 1300 nM | TGI (NCI-H226 lung): 5070 nM | GI50 (HCC-2998 colon): 1340 nM | TGI (HCC-2998 colon): > 100000 nM | GI50 (MALME-3M melanoma): 1540 nM | TGI (MALME-3M melanoma): 6180 nM | GI50 (MDA-MB-231 breast): 1130 nM | TGI (MDA-MB-231 breast): 5530 nM | GI50 (SF-295 CNS): 691 nM | TGI (SF-295 CNS): 4120 nM | GI50 (M14 melanoma): 874 nM | TGI (M14 melanoma): 7830 nM | GI50 (COLO 205 colon): 727 nM | TGI (COLO 205 colon): 2100 nM | GI50 (HT29 colon): 2010 nM | TGI (HT29 colon): > 41900 nM | GI50 (OVCAR-4 ovarian): 422 nM | TGI (OVCAR-4 ovarian): > 100000 nM | GI50 (IGROV1 ovarian): 1570 nM | TGI (IGROV1 ovarian): > 42200 nM | GI50 (KM12 colon): 902 nM | TGI (KM12 colon): 8140 nM | GI50 (SK-MEL-28 melanoma): 1380 nM | TGI (SK-MEL-28 melanoma): 6880 nM | TGI (A498 renal): 3140 nM | GI50 (SK-MEL-5 melanoma): 1390 nM | TGI (SK-MEL-5 melanoma): 3510 nM | GI50 (LOX IMVI melanoma): 530 nM | TGI (LOX IMVI melanoma): 2940 nM | GI50 (SW-620 colon): 667 nM | TGI (SW-620 colon): 6020 nM | GI50 (UACC-62 melanoma): 1430 nM | TGI (UACC-62 melanoma): 5360 nM | GI50 (HOP-62 NSCLC): 836 nM | TGI (HOP-62 NSCLC): 2720 nM | GI50 (MOLT-4 leukemia): 1290 nM | TGI (MOLT-4 leukemia): > 100000 nM | GI50 (T-47D breast): 824 nM | TGI (T-47D breast): 4630 nM | GI50 (OVCAR-5 ovarian): 1650 nM | TGI (OVCAR-5 ovarian): 11100 nM | GI50 (MDA-MB-435): 2290 nM | TGI (MDA-MB-435): 20900 nM | GI50 (SR leukemia): 188 nM | TGI (SR leukemia): 768 nM | GI50 (SF-539 CNS): 1220 nM | TGI (SF-539 CNS): 3600 nM | GI50 (BT-549 breast): 1120 nM | TGI (BT-549 breast): 5750 nM | GI50 (SNB-19 CNS): 1720 nM | TGI (SNB-19 CNS): 14500 nM | GI50 (SF-268 CNS): 811 nM | TGI (SF-268 CNS): 6050 nM | GI50 (TK-10 renal): 1000 nM | TGI (TK-10 renal): 16100 nM | GI50 (CCRF-CEM leukemia): 341 nM | TGI (CCRF-CEM leukemia): 4780 nM | GI50 (SK-OV-3 ovarian): 874 nM | TGI (SK-OV-3 ovarian): 4950 nM | GI50 (HOP-92 NSCLC): 2140 nM | TGI (HOP-92 NSCLC): > 24600 nM | GI50 (NCI-H522 lung): 1480 nM | TGI (NCI-H522 lung): 6770 nM | GI50 (OVCAR-3 ovarian): 239 nM | TGI (OVCAR-3 ovarian): 2150 nM | GI50 (OVCAR-8 ovarian): 2160 nM | TGI (OVCAR-8 ovarian): > 92700 nM | GI50 (MCF7 breast): 896 nM | TGI (MCF7 breast): 10600 nM | GI50 (NCI-H23 lung): 775 nM | TGI (NCI-H23 lung): 4890 nM | GI50 (PC-3 prostate): 866 nM | TGI (PC-3 prostate): > 26000 nM | GI50 (HCT-15 colon): 438 nM | TGI (HCT-15 colon): 16500 nM | GI50 (NCI/ADR-RES ovarian): 1190 nM | TGI (NCI/ADR-RES ovarian): 7160 nM | GI50 (ACHN renal): 1530 nM | TGI (ACHN renal): 6860 nM | GI50 (NCI-H460 lung): 850 nM | TGI (NCI-H460 lung): 4840 nM | GI50 (EKVX NSCLC): 894 nM | TGI (EKVX NSCLC): 7230 nM | GI50 (A549 NSCLC): 1770 nM | TGI (A549 NSCLC): 11600 nM | GI50 (DU-145 prostate): 1620 nM | TGI (DU-145 prostate): > 27600 nM | GI50 (SK-MEL-2 melanoma): 3220 nM | TGI (SK-MEL-2 melanoma): 18800 nM | GI50 (SN12C renal): 1450 nM | TGI (SN12C renal): > 54300 nM | GI50 (UO-31 renal): 1290 nM | TGI (UO-31 renal): 4150 nM | GI50 (786-0 renal): 672 nM | TGI (786-0 renal): 2670 nM | GI50 (K-562 leukemia): 588 nM | GI50 (RXF 393 renal): 1480 nM | TGI (RXF 393 renal): 4410 nM | GI50 (HCT-116 colon): 439 nM | TGI (HCT-116 colon): 3180 nM | GI50 (SNB-75 CNS): 2290 nM | TGI (SNB-75 CNS): > 29300 nM | GI50 (HL-60(TB) leukemia): 1120 nM | GI50 (U251 CNS): 526 nM | TGI (U251 CNS): 4860 nM | GI50 (UACC-257 melanoma): 2240 nM | TGI (UACC-257 melanoma): 10200 nM | GI50 (HS 578T breast): 1260 nM | TGI (HS 578T breast): 5670 nM
